According to ChEMBL document CHEMBL1817620, “Synthesis and cytotoxicity of 2-phenylquinazolin-4(3H)-one derivatives” (Eur J Med Chem, 2011):
Activity calls are given as the source filed them. The calls are words filed in the database; no cut-off is given here.

Assays:
HeLa [1] = assay: Cytotoxicity against human HeLa cells after 4 days by MTT assay; type: functional, cell-based; conditions: 96 h
HCT-29 = assay: Cytotoxicity against human HCT29 cells after 4 days by MTT assay; type: functional, cell-based; conditions: HCT-29, 96 h
DU-145 = assay: Cytotoxicity against human DU145 cells after 4 days by MTT assay; type: functional, cell-based; conditions: DU-145, 96 h
MDA-MB-231 = assay: Cytotoxicity against human MDA-MB-231 cells after 4 days by MTT assay; type: functional, cell-based; conditions: MDA-MB-231, 96 h
HL-60 = assay: Cytotoxicity against human HL60 cells after 4 days by MTT assay; type: functional, cell-based; conditions: HL-60, 96 h
HeLa [2] = assay: Cell cycle arrest in human HeLa cells assessed as enhanced ratio of cell death at 10 umol after 72 hrs using propidium iodide staining by flow cytometry relative to control; type: functional
HeLa [3] = assay: Cell cycle arrest in human HeLa cells assessed as fold increase in G1 phase at 10 umol after 36 hrs using propidium iodide staining by flow cytometry relative to control; type: functional
[4] = biological target: Poly [ADP-ribose] polymerase 1 (Homo sapiens) (UniProt P09874); assay: Inhibition of PARP1
Poly [ADP-ribose] polymerase 1 (Homo sapiens), sequence (P09874 whole entry): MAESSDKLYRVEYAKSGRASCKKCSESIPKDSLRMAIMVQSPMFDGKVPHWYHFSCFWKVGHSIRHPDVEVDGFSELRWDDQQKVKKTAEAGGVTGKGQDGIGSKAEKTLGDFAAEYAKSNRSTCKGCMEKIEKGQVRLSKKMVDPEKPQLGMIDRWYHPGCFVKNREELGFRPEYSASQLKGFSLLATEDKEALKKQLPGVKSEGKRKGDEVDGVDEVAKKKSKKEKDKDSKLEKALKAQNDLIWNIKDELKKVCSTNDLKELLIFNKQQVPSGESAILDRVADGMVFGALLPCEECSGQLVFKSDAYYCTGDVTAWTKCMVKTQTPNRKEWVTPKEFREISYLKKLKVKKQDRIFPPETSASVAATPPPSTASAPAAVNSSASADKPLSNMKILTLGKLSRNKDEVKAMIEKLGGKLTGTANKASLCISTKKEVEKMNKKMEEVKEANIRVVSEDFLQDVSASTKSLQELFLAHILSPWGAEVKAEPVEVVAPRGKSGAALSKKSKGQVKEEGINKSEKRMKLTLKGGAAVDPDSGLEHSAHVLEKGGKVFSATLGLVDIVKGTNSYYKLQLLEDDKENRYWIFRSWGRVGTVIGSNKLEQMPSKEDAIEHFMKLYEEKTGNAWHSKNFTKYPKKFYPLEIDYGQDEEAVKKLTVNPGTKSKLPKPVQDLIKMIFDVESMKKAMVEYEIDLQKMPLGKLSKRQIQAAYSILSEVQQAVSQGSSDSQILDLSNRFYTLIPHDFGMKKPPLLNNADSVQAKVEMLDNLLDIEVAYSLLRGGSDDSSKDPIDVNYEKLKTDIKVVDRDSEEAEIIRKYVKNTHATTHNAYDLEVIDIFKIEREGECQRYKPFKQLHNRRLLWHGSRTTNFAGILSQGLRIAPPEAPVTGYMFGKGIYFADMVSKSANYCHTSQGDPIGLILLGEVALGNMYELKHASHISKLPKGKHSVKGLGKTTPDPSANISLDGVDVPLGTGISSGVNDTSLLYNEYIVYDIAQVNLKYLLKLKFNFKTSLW

SMILES	IC50 (HeLa [1]) [µM]	IC50 (HCT-29) [µM]	IC50 (DU-145) [µM]	IC50 (MDA-MB-231) [µM]	IC50 (HL-60) [µM]	Ratio (HeLa [2])	fold change (FC) (HeLa [3])	inhibition [4]
O=C(c1ccc(-c2nc3ccccc3c(=O)[nH]2)cc1)N1CCN(S(=O)(=O)c2cccc(C(F)(F)F)c2)CC1	9.3	9.5	14.1	> 50	23.5			
O=C(c1ccc(-c2nc3ccccc3c(=O)[nH]2)cc1)N1CCN(S(=O)(=O)c2cccc3cccnc23)CC1	11.1	> 50	15.6	6.3	14.6			
O=C(c1ccc(-c2nc3ccccc3c(=O)[nH]2)cc1)N1CCN(S(=O)(=O)c2ccc(C(F)(F)F)cc2)CC1	13.4	21.6	14.9	31.4	6.5			
O=C(O)c1ccc(-c2nc3ccccc3c(=O)[nH]2)cc1	> 50	30.6	28.1	> 50	11.7			
Cc1ccc(CS(=O)(=O)N2CCN(C(=O)c3ccc(-c4nc5ccccc5c(=O)[nH]4)cc3)CC2)cc1	9	19.5	29.6	7.7	16.7			
O=C(c1ccc(-c2nc3ccccc3c(=O)[nH]2)cc1)N1CCN(S(=O)(=O)c2ccc(F)cc2)CC1	35.4	11.1	35	27.7	10.9			
COc1ccc(Cn2c(-c3ccc(C(=O)N4CCN(S(=O)(=O)c5ccccc5)CC4)cc3)nc3ccccc3c2=O)cc1	2.9	8.6	2.5	4.2	2.6	6.83	1.19	
Cn1c(-c2ccc(C(=O)N3CCN(S(=O)(=O)c4ccccc4)CC3)cc2)nc2ccccc2c1=O	14.1	13.3	10.4	9.1	5.9			
COc1ccc(Cn2c(-c3ccc(C(=O)N4CCN(S(=O)(=O)c5ccc(OC)cc5)CC4)cc3)nc3ccccc3c2=O)cc1	16.5	5.8	5.8	9.9	3.8	7.29	1.18	
CC(C)(C)OC(=O)N1CCN(C(=O)c2ccc(-c3nc4ccccc4c(=O)[nH]3)cc2)CC1	20.7	20.7	> 50	8.5	15.4			
O=C(c1ccc(-c2nc3ccccc3c(=O)[nH]2)cc1)N1CCN(S(=O)(=O)c2ccccc2)CC1	8.9	12.5	7.1	32.6	14.3			
O=C(c1ccc(-c2nc3ccccc3c(=O)[nH]2)cc1)N1CCNCC1	> 50	> 50	24.3	> 50	16.7			
COc1cccc2c1C(=O)c1c(O)c3c(c(O)c1C2=O)C[C@@](O)(C(=O)CO)C[C@@H]3O[C@H]1C[C@H](N)[C@H](O)[C@H](C)O1 [DOXORUBICIN]	3.7	2.5	1.9		0.8			
O=C(c1ccc(-c2nc3ccccc3c(=O)[nH]2)cc1)N1CCN(S(=O)(=O)c2ccc(Cl)cc2)CC1	18	> 50	> 50	> 50	13.6			
O=C(c1ccc(-c2nc3ccccc3c(=O)[nH]2)cc1)N1CCN(S(=O)(=O)Cc2ccc(Cl)cc2)CC1	4.4	12.6	27.1	> 50	> 50	8.74	1.2	
O=C(c1ccc(-c2nc3ccccc3c(=O)[nH]2)cc1)N1CCN(S(=O)(=O)c2cccc3ccccc23)CC1	11.7	11.6	9.9	22.2	7			
O=C(c1ccc(-c2nc3ccccc3c(=O)[nH]2)cc1)N1CCN(S(=O)(=O)c2cccs2)CC1	> 50	15.7	21.3	9.4	2.2			

SMILES	IC50 (HeLa [1]) [µM]	IC50 (HCT-29) [µM]	IC50 (DU-145) [µM]	IC50 (MDA-MB-231) [µM]	IC50 (HL-60) [µM]	Ratio (HeLa [2])	fold change (FC) (HeLa [3])	inhibition [4]
O=C(c1ccc(-c2nc3ccccc3c(=O)[nH]2)cc1)N1CCN(S(=O)(=O)c2ccc([N+](=O)[O-])cc2)CC1	20	2.6	25.2	12.5	2			inactive
CC(C)S(=O)(=O)N1CCN(C(=O)c2ccc(-c3nc4ccccc4c(=O)[nH]3)cc2)CC1	11	> 50	17.4	5.8	7.5			
O=C(c1ccc(-c2nc3ccccc3c(=O)[nH]2)cc1)N1CCN(S(=O)(=O)C2CC2)CC1	> 50	> 50	6	8.2	10.8			
O=C(c1ccc(-c2nc3ccccc3c(=O)[nH]2)cc1)N1CCN(S(=O)(=O)Cc2ccccc2)CC1	9.1	2.3	7.7	15.8	18.7	7.04	1.21	inactive
O=C(c1ccc(-c2nc3ccccc3c(=O)[nH]2)cc1)N1CCN(S(=O)(=O)c2ccc3ccccc3c2)CC1	13.3	16.5	27.8	> 50	26.6			
CC(C)c1ccc(S(=O)(=O)N2CCN(C(=O)c3ccc(-c4nc5ccccc5c(=O)[nH]4)cc3)CC2)cc1	17.2	9	16.2	9.4	2.6			
CC(C)(C)OC(=O)N1CCN(C(=O)c2ccc(-c3nc4ccccc4c(=O)n3Cc3ccccc3)cc2)CC1	21.6	> 50	> 50	40.4	2.9			
COc1ccc(S(=O)(=O)N2CCN(C(=O)c3ccc(-c4nc5ccccc5c(=O)n4C)cc3)CC2)cc1	23.7	25.8	21.5	> 50	5.9			
O=C(c1ccc(-c2nc3ccccc3c(=O)[nH]2)cc1)N1CCN(S(=O)(=O)c2ccccc2C(F)(F)F)CC1	8.3	> 50	24.7	5.5	14.1			
O=C(c1ccc(-c2nc3ccccc3c(=O)n2Cc2ccccc2)cc1)N1CCN(S(=O)(=O)c2ccccc2)CC1	20.1	23.6	15.3	19.3	4.2			
CCCCS(=O)(=O)N1CCN(C(=O)c2ccc(-c3nc4ccccc4c(=O)[nH]3)cc2)CC1	17.3	10.3	17.9	1.2	14.9			
COc1ccc(S(=O)(=O)N2CCN(C(=O)c3ccc(-c4nc5ccccc5c(=O)n4Cc4ccccc4)cc3)CC2)cc1	34.2	22.5	16	48.1	6.1			
Cn1c(-c2ccc(C(=O)N3CCN(C(=O)OC(C)(C)C)CC3)cc2)nc2ccccc2c1=O	15.5	28	17.2	24.9	9.5			
O=C(c1ccc(-c2nc3ccccc3c(=O)[nH]2)cc1)N1CCN(S(=O)(=O)C2CCCC2)CC1	11.2	12.9	4.8	14.7	11.2	5.96	1.2	
CS(=O)(=O)N1CCN(C(=O)c2ccc(-c3nc4ccccc4c(=O)[nH]3)cc2)CC1	> 50	> 50	20	6.4	11.6			
Cc1ccc(S(=O)(=O)N2CCN(C(=O)c3ccc(-c4nc5ccccc5c(=O)[nH]4)cc3)CC2)cc1	23.5	10.5	18.1	43.5	8.4			
COc1ccc(S(=O)(=O)N2CCN(C(=O)c3ccc(-c4nc5ccccc5c(=O)[nH]4)cc3)CC2)cc1	> 50	21.6	27	5.1	7.5			
